# Laboratory results: ChEMBL document CHEMBL1201862, “PubChem BioAssay data set” (2004)
#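 96-well plates; 48 h exposure; 5 concentrations. Endpoints by linear interpolation between flanking doses. Not reached: highest tested concentration assigned. At the GI50, growth is halved.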 The source made the active and inactive calls. No stated cut-off is given here; in the data, active = GI50 up to about 1.1 µM and inactive = higher.
# Legend:
# Assay in all cases: growth of human tumour cells (NCI), 48 h
# [1] = system: KM12
# [2] = system: SN12C
# [3] = system: HCT-15
# [4] = system: OVCAR-5
# [5] = system: MDA-MB-435
# [6] = system: CAKI-1
# [7] = system: A498
# [8] = system: Malme-3M
# [9] = system: HCC 2998
# [10] = system: SK-OV-3
# [11] = system: SK-MEL-5
# [12] = system: SNB-19
# [13] = system: MDA-MB-231
# [14] = system: SK-MEL-28
# [15] = system: OVCAR-3
# [16] = system: NCI-H226
# [17] = system: OVCAR-4
# [18] = system: SF-539
# [19] = system: HOP-92
# [20] = system: NCI-H23
# [21] = system: UACC-62
# [22] = system: M14
# [23] = system: U-251
# [24] = system: MOLT-4
# [25] = system: UO-31
# [26] = system: RPMI-8226
# [27] = system: 786-0
# [28] = system: Hs-578T
# [29] = system: SK-MEL-2
# [30] = system: DU-145
# [31] = system: SNB-75
# [32] = system: NCI-H522
# [33] = system: OVCAR-8
# [34] = system: SR
# [35] = system: NCI/ADR-RES
# [36] = system: EKVX
# [37] = system: HCT-116
# [38] = system: NCI-H460
# [39] = system: TK-10
# [40] = system: HOP-62
# [41] = system: ACHN
# [42] = system: COLO 205
# [43] = system: CCRF-CEM
# [44] = system: RXF 393
# [45] = system: IGROV-1
# [46] = system: LOX IMVI
# [47] = system: K562
# [48] = system: PC-3
# [49] = system: SF-295
# [50] = system: SF-268
# [51] = system: T47D
# [52] = system: HT-29
# [53] = system: MCF7
# [54] = system: BT-549
# [55] = system: SW-620
# [56] = system: MDA-N
# [57] = system: A549
# [58] = system: UACC-257
# [59] = system: HL-60
structure (smiles),measurement,setting,value
COC(=O)C(=O)C(C(=O)C(=O)Nc1cc(C)ccc1C)c1nc2ccccc2nc1O (stereo unspecified),GI50,[1],> 100 µM (inactive)
same,GI50,[2],> 100 µM (inactive)
same,GI50,[3],> 100 µM
same,GI50,[4],> 100 µM (inactive)
same,GI50,[5],> 100 µM (inactive)
same,GI50,[6],> 100 µM (inactive)
same,GI50,[7],> 100 µM (inactive)
same,GI50,[8],> 100 µM (inactive)
same,GI50,[9],> 100 µM (inactive)
same,GI50,[10],> 100 µM (inactive)
same,GI50,[11],> 100 µM (inactive)
same,GI50,[12],> 100 µM (inactive)
same,GI50,[13],> 100 µM (inactive)
same,GI50,[14],> 100 µM (inactive)
same,GI50,[15],> 100 µM (inactive)
same,GI50,[16],> 100 µM (inactive)
same,GI50,[17],> 100 µM (inactive)
same,GI50,[18],> 100 µM (inactive)
same,GI50,[19],26.7 µM (inactive)
same,GI50,[20],> 100 µM (inactive)
same,GI50,[21],87.7 µM (inactive)
same,GI50,[22],> 100 µM (inactive)
same,GI50,[23],> 100 µM (inactive)
same,GI50,[24],71.3 µM (inactive)
same,GI50,[25],> 100 µM (inactive)
same,GI50,[26],19.6 µM (inactive)
same,GI50,[27],> 100 µM (inactive)
same,GI50,[28],74.3 µM (inactive)
same,GI50,[29],> 100 µM (inactive)
same,GI50,[30],> 100 µM (inactive)
same,GI50,[31],> 100 µM (inactive)
same,GI50,[32],> 100 µM (inactive)
same,GI50,[33],> 100 µM (inactive)
same,GI50,[34],30.3 µM (inactive)
same,GI50,[35],> 100 µM (inactive)
same,GI50,[36],26.6 µM (inactive)
same,GI50,[37],> 100 µM (inactive)
same,GI50,[38],> 100 µM (inactive)
same,GI50,[39],> 100 µM (inactive)
same,GI50,[40],> 100 µM (inactive)
same,GI50,[41],> 100 µM (inactive)
same,GI50,[42],> 100 µM (inactive)
same,GI50,[43],36.1 µM (inactive)
same,GI50,[44],77.3 µM (inactive)
same,GI50,[45],67 µM (inactive)
same,GI50,[46],> 100 µM (inactive)
same,GI50,[47],> 100 µM (inactive)
same,GI50,[48],> 100 µM (inactive)
same,GI50,[49],> 100 µM (inactive)
same,GI50,[50],> 100 µM (inactive)
same,GI50,[51],> 100 µM (inactive)
same,GI50,[52],> 100 µM (inactive)
same,GI50,[53],> 100 µM (inactive)
same,GI50,[54],> 100 µM (inactive)
same,GI50,[55],> 100 µM (inactive)
same,GI50,[56],> 100 µM (inactive)
same,GI50,[57],85.3 µM (inactive)
same,GI50,[58],> 100 µM (inactive)
Cc1ccc(/N=C2\OP(=O)(Nc3ccc(C)cc3)Oc3ccccc32)cc1 (stereo unspecified),GI50,[1],> 100 µM (inactive)
same,GI50,[2],> 100 µM (inactive)
same,GI50,[3],> 100 µM
same,GI50,[4],> 100 µM (inactive)
same,GI50,[5],> 100 µM (inactive)
same,GI50,[6],> 100 µM (inactive)
same,GI50,[7],> 100 µM (inactive)
same,GI50,[8],> 100 µM (inactive)
same,GI50,[9],> 100 µM (inactive)
same,GI50,[10],> 100 µM (inactive)
same,GI50,[11],73.1 µM (inactive)
same,GI50,[12],> 100 µM (inactive)
same,GI50,[13],> 100 µM (inactive)
same,GI50,[14],> 100 µM (inactive)
same,GI50,[15],> 100 µM (inactive)
same,GI50,[16],> 100 µM (inactive)
same,GI50,[17],> 100 µM (inactive)
same,GI50,[18],> 100 µM (inactive)
same,GI50,[19],30 µM (inactive)
same,GI50,[20],> 100 µM (inactive)
same,GI50,[21],> 100 µM (inactive)
same,GI50,[22],29.3 µM (inactive)
same,GI50,[23],> 100 µM (inactive)
same,GI50,[24],> 100 µM (inactive)
same,GI50,[25],97.7 µM (inactive)
same,GI50,[27],> 100 µM (inactive)
same,GI50,[28],> 100 µM (inactive)
same,GI50,[29],> 100 µM (inactive)
same,GI50,[30],> 100 µM (inactive)
same,GI50,[31],36.4 µM (inactive)
same,GI50,[33],> 100 µM (inactive)
same,GI50,[34],> 100 µM (inactive)
same,GI50,[35],> 100 µM (inactive)
same,GI50,[36],> 100 µM (inactive)
same,GI50,[59],> 100 µM (inactive)
same,GI50,[37],87.9 µM (inactive)
same,GI50,[38],> 100 µM (inactive)
same,GI50,[39],> 100 µM (inactive)
same,GI50,[40],> 100 µM (inactive)
same,GI50,[41],> 100 µM (inactive)
same,GI50,[42],> 100 µM (inactive)
same,GI50,[43],> 100 µM (inactive)
same,GI50,[44],81.5 µM (inactive)
same,GI50,[45],> 100 µM (inactive)
same,GI50,[46],> 100 µM (inactive)
same,GI50,[47],50.6 µM (inactive)
same,GI50,[48],> 100 µM (inactive)
same,GI50,[49],> 100 µM (inactive)
same,GI50,[50],> 100 µM (inactive)
same,GI50,[51],> 100 µM (inactive)
same,GI50,[52],> 100 µM (inactive)
same,GI50,[53],90.6 µM (inactive)
same,GI50,[54],> 100 µM (inactive)
same,GI50,[55],> 100 µM (inactive)
same,GI50,[56],> 100 µM (inactive)
same,GI50,[57],> 100 µM (inactive)
same,GI50,[58],> 100 µM (inactive)
CN(C)CCNC(=O)c1ccc(NC(=O)c2nc([N+](=O)[O-])cn2C)cc1,GI50,[1],> 100 µM (inactive)
same,GI50,[2],> 100 µM (inactive)
same,GI50,[3],> 100 µM
same,GI50,[4],> 100 µM (inactive)
same,GI50,[5],> 100 µM (inactive)
same,GI50,[6],> 100 µM (inactive)
same,GI50,[7],> 100 µM (inactive)
same,GI50,[8],> 100 µM (inactive)
same,GI50,[10],> 100 µM (inactive)
same,GI50,[11],> 100 µM (inactive)
same,GI50,[13],> 100 µM (inactive)
same,GI50,[14],> 100 µM (inactive)
same,GI50,[15],> 100 µM (inactive)
same,GI50,[16],> 100 µM (inactive)
same,GI50,[17],> 100 µM (inactive)
same,GI50,[18],> 100 µM (inactive)
same,GI50,[19],> 100 µM (inactive)
same,GI50,[20],> 100 µM (inactive)
same,GI50,[21],> 100 µM (inactive)
same,GI50,[22],> 100 µM (inactive)
same,GI50,[23],> 100 µM (inactive)
same,GI50,[24],> 100 µM (inactive)
same,GI50,[25],> 100 µM (inactive)
same,GI50,[26],> 100 µM (inactive)
same,GI50,[27],> 100 µM (inactive)
same,GI50,[28],> 100 µM (inactive)
same,GI50,[29],> 100 µM (inactive)
same,GI50,[30],> 100 µM (inactive)
same,GI50,[31],> 100 µM (inactive)
same,GI50,[32],> 100 µM (inactive)
same,GI50,[33],> 100 µM (inactive)
same,GI50,[34],> 100 µM (inactive)
same,GI50,[35],> 100 µM (inactive)
same,GI50,[59],> 100 µM (inactive)
same,GI50,[37],> 100 µM (inactive)
same,GI50,[38],> 100 µM (inactive)
same,GI50,[39],> 100 µM (inactive)
same,GI50,[40],> 100 µM (inactive)
same,GI50,[41],> 100 µM (inactive)
same,GI50,[42],> 100 µM (inactive)
same,GI50,[43],> 100 µM (inactive)
same,GI50,[44],> 100 µM (inactive)
same,GI50,[45],> 100 µM (inactive)
same,GI50,[46],> 100 µM (inactive)
same,GI50,[47],> 100 µM (inactive)
same,GI50,[48],> 100 µM (inactive)
same,GI50,[49],> 100 µM (inactive)
same,GI50,[50],> 100 µM (inactive)
same,GI50,[51],> 100 µM (inactive)
same,GI50,[52],> 100 µM (inactive)
same,GI50,[53],> 100 µM (inactive)
same,GI50,[54],> 100 µM (inactive)
same,GI50,[55],> 100 µM (inactive)
same,GI50,[56],> 100 µM (inactive)
same,GI50,[57],> 100 µM (inactive)
same,GI50,[58],> 100 µM (inactive)
